Measured values from patent US11919886B2, “4,9-dioxo-4,9-dihydronaphtho[2,3-B]furan-3-carboxamide derivatives and uses thereof for treating proliferative diseases and infectious diseases” (Academia Sinica, priority 2016, dated 2024).
Values after ≈ are worked out from the molar mass of the structure shown. Where two headings read alike, the source gives them in different places.

What was measured:
[1] = system: Streptococcus infantarius subsp. coli; assay: MIC, broth micro dilution method; type: cell-based; settings: strain ATCC BAA-103, S. bovis
Acinetobacter baumannii = assay: MIC, broth micro dilution method; type: cell-based
[2] = system: Staphylococcus haemolyticus; assay: MIC, broth micro dilution method; type: cell-based
[3] = system: Breast Cancer Cells (MDA-MB231); assay: Cell viability by Cell-TiterGlo; type: cell-based; settings: Homo sapiens, MDA-MB-231, 48 h, two days, read-out: % of the activities in the presence of ~10 μM compound, Breast Cancer Cells (MDA-MB231)
Procedure: (§1) Compound 1 and its analogues shown in Table 6 below were tested for their activities on cancer cells and bacterial cells using assays described herein. H1975, MDA-MB231, and MCF7 cells were incubated in the presence of the compounds in cell growth medium containing 10% fetal bovine serum for two days in a mammalian cell culture incubatoe. Cell viability were monitored by using Cell-TiterGlo. Staphylococcus aureus and Escherichia coli were incubated in the presence of the compounds in Muller-Hinton broth for 16-24 hours in a 37° C. incubator. Bacterial growth was monitored by using Alamar Blue (Invitrogen).

[4] = system: Breast Cancer Cells (MCF); assay: Cell viability by Cell-TiterGlo; type: cell-based; settings: Homo sapiens, 48 h, two days, read-out: % of the activities in the presence of ~10 μM compound, Breast Cancer Cells (MCF)
Procedure: as §1

[5] = system: Lung Cancer Cells (H1975); assay: Cell viability by Cell-TiterGlo; type: cell-based; settings: Homo sapiens, NCI-H1975, 48 h, two days, read-out: % of the activities in the presence of ~10 μM compound, Lung Cancer Cells (H1975)
Procedure: as §1

Pseudomonas aeruginosa = assay: MIC, broth micro dilution method; type: cell-based
MCM2 = molecular target: T1, MCM2 (Homo sapiens, UniProt P49736); assay: MCM2 ubiquitination (Myc-Ub transfection, MCM2 immunoprecipitation); type: cell-based; settings: H1975 co-expressing Myc-Ub, 140 nM, 12 hours
T1 construct: The MCM2 proteins were pulled down by incubating the H1975 lysate with compound 1-conjugated magnetic beads; endogenous in cells; host or cells: H1975
Procedure: To determine whether Compound 1 triggers MCM2 degradation through promoting MCM2 ubiquitination, Myc-tagged ubiquitin (Myc-Ub) was transfected into H1975 cells treated with or without compound 1 and followed by MCM2 immunoprecipitation. The cells were transiently transfected with pcDNA3-Myc-Ub and treated with or without 140 nM of compound 1 combined with MG132. After 12 hours, the cells were harvested and MCM2 proteins were precipitated with specific anti-MCM2 antibodies. The ubiqiuitination pattern were detected by immunoblotting. IgG served as the antibody control in the immunoprecipitation experiment.

Staphylococcus aureus = assay: MIC, broth micro dilution method; type: cell-based
H1975 cell line = assay: Sulforhodamine B colorimetric (SRB) assay, H1975; settings: Homo sapiens, NCI-H1975, 72 h

T1 sequence (P49736 whole entry): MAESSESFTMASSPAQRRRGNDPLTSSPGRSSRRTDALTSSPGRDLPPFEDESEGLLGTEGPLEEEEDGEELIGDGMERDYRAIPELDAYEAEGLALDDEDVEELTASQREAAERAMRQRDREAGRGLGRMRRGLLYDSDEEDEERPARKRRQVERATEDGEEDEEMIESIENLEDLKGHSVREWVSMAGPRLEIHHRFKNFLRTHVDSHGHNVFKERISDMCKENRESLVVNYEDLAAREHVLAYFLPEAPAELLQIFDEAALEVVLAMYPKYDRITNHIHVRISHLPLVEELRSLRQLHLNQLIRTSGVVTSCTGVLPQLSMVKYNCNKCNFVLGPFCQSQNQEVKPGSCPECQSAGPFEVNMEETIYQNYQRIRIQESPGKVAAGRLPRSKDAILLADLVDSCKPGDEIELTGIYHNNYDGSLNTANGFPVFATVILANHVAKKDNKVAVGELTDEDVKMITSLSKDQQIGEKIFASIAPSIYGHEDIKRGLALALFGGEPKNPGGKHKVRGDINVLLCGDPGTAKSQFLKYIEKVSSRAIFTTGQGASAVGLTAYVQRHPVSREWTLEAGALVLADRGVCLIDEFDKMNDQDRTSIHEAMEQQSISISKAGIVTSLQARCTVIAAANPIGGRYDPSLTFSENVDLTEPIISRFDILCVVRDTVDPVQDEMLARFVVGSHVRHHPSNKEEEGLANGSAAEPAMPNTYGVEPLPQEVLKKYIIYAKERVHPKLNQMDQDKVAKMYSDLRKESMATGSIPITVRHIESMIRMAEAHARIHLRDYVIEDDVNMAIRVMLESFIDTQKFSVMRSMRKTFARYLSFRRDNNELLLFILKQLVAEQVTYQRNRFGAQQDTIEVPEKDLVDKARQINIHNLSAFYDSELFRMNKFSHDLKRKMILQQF

Cc1oc2c(c1C(=O)NCCCn1ccnc1)C(=O)c1ccccc1C2=O [Compound 1, N-(3-(1H-Imidazol-1-yl)propyl)-2-methyl-4,9-dioxo-4,9-dihydronaphtho [2,3-b]furan-3-carboxamide]
MIC ([1]; read-out: MIC (μg/ml) 100%): 4 µg/mL (≈ 11 µM) | MIC ([1]; read-out: MIC (μg/ml) 50%): 2 µg/mL (≈ 5.5 µM) | MIC (Acinetobacter baumannii; read-out: MIC (μg/ml) 100%, strain ATCC19606, gram negative): > 32 µg/mL | MIC (Acinetobacter baumannii; strain ATCC19606, gram negative, read-out: MIC (μg/ml) 50%): > 32 µg/mL | MIC ([2]; read-out: MIC (μg/ml) 100%, strain ATCC29970, methicillin-susceptible): 4 µg/mL (≈ 11 µM) | MIC ([2]; strain ATCC29970, methicillin-susceptible, read-out: MIC (μg/ml) 50%): 2 µg/mL (≈ 5.5 µM) | viability at 10 µM [3]: 13.7% | viability at 10 µM [4]: 6% | viability at 10 µM [5]: 4.2% | MIC (Pseudomonas aeruginosa; read-out: MIC (μg/ml) 100%, strain ATCC27853, gram negative): > 32 µg/mL | MIC (Pseudomonas aeruginosa; strain ATCC27853, gram negative, read-out: MIC (μg/ml) 50%): > 32 µg/mL | Ubiquitylated MCM2 (MCM2): detected in treated cells | MIC (Staphylococcus aureus; ATCC 2921 / MSSA, read-out: MIC (μg/ml) 100%, strain ATCC2921 3, MSSA): 4 µg/mL (≈ 11 µM) | MIC (Staphylococcus aureus; ATCC 2921 / MSSA, strain ATCC2921 3, MSSA, read-out: MIC (μg/ml) 50%): 1 µg/mL (≈ 2.75 µM) | MIC (Staphylococcus aureus; ATCC 12598 / MSSA, read-out: MIC (μg/ml) 100%, strain ATCC12598, MSSA): 4 µg/mL (≈ 11 µM) | MIC (Staphylococcus aureus; ATCC 12598 / MSSA, strain ATCC12598, MSSA, read-out: MIC (μg/ml) 50%): 0.5 µg/mL (≈ 1.38 µM) | MIC (Staphylococcus aureus; ATCC 25923 / MSSA, read-out: MIC (μg/ml) 100%, strain ATCC25923, MSSA): 4 µg/mL (≈ 11 µM) | MIC (Staphylococcus aureus; ATCC 25923 / MSSA, strain ATCC25923, MSSA, read-out: MIC (μg/ml) 50%): 2 µg/mL (≈ 5.5 µM) | MIC (Staphylococcus aureus; ATCC 33592 / MRSA, read-out: MIC (μg/ml) 100%, strain ATCC33592, MRSA (SCCmec III)): 1 µg/mL (≈ 2.75 µM) | MIC (Staphylococcus aureus; ATCC 33592 / MRSA, strain ATCC33592, MRSA (SCCmec III), read-out: MIC (μg/ml) 50%): 0.5 µg/mL (≈ 1.38 µM) | MIC (Staphylococcus aureus; ATCC 49476 / MRSA, read-out: MIC (μg/ml) 100%, strain ATCC49476, MRSA (SCCmec III)): 1 µg/mL (≈ 2.75 µM) | MIC (Staphylococcus aureus; ATCC 49476 / MRSA, strain ATCC49476, MRSA (SCCmec III), read-out: MIC (μg/ml) 50%): 0.5 µg/mL (≈ 1.38 µM) | MIC (Staphylococcus aureus; MRSA, range over MRSA strains, broth micro dilution, read-out: MIC): 1 to 4 µg/mL (≈ 2.75 to 11 µM) | MIC (Staphylococcus aureus; MRSA, read-out: MIC (μg/ml) 100%, strain NTUH-1-2868, MRSA (SCCmec III, ST239, FA-R), clinical isolate): 1 µg/mL (≈ 2.75 µM) | MIC (Staphylococcus aureus; MRSA, read-out: MIC (μg/ml) 100%, strain NTUH-104-2, MRSA (SCCmec VT, ST45), clinical isolate): 1 µg/mL (≈ 2.75 µM) | MIC (Staphylococcus aureus; MRSA, read-out: MIC (μg/ml) 100%, strain NTUH-406-2, MRSA (SCCmec IV, spa type t008), clinical isolate): 4 µg/mL (≈ 11 µM) | MIC (Staphylococcus aureus; MRSA, read-out: MIC (μg/ml) 100%, strain NTUH-560, MRSA (SCCmec II, GM-S), clinical isolate): 4 µg/mL (≈ 11 µM) | MIC (Staphylococcus aureus; MRSA, read-out: MIC (μg/ml) 100%, strain NTUH-2102, MRSA (SCCmec II, ST5, FA-S), clinical isolate): 4 µg/mL (≈ 11 µM) | MIC (Staphylococcus aureus; MRSA, read-out: MIC (μg/ml) 100%, strain NTUH-2417, MRSA (SCCmec III, SXT-S), clinical isolate): 1 µg/mL (≈ 2.75 µM) | MIC (Staphylococcus aureus; MRSA, read-out: MIC (μg/ml) 100%, strain NTUH-2643, MRSA (SCCmec IV, spa type to 15), clinical isolate): 4 µg/mL (≈ 11 µM) | MIC (Staphylococcus aureus; MRSA, read-out: MIC (μg/ml) 100%, strain NTUH-2967, MRSA (SCCmec VT, ST1), clinical isolate): 4 µg/mL (≈ 11 µM) | MIC (Staphylococcus aureus; MRSA, read-out: MIC (μg/ml) 100%, strain NTUH-4400, MRSA (SCCmec II, ST5, FA-R), clinical isolate): 2 µg/mL (≈ 5.5 µM) | MIC (Staphylococcus aureus; MRSA, read-out: MIC (μg/ml) 100%, strain NTUH-4578, MRSA (SCCmec IV, ST59), clinical isolate): 4 µg/mL (≈ 11 µM) | MIC (Staphylococcus aureus; MRSA, read-out: MIC (μg/ml) 100%, strain NTUH-8038, MRSA (SCCmec IV, spa type t189), clinical isolate): 4 µg/mL (≈ 11 µM) | MIC (Staphylococcus aureus; MRSA, read-out: MIC (μg/ml) 100%, strain NTUH-9383, MRSA (SCCmec III, ST239, FA-R), clinical isolate): 1 µg/mL (≈ 2.75 µM) | MIC (Staphylococcus aureus; MRSA, read-out: MIC (μg/ml) 100%, strain PM1, MRSA (SCCmec VT, ST59), clinical isolate): 4 µg/mL (≈ 11 µM) | MIC (Staphylococcus aureus; MRSA, read-out: MIC (μg/ml) 100%, strain TSHR17, MRSA (SCCmec VT)): 4 µg/mL (≈ 11 µM) | MIC (Staphylococcus aureus; MRSA, strain NTUH-1-2868, MRSA (SCCmec III, ST239, FA-R), clinical isolate, read-out: MIC (μg/ml) 50%): 0.5 µg/mL (≈ 1.38 µM) | MIC (Staphylococcus aureus; MRSA, strain NTUH-104-2, MRSA (SCCmec VT, ST45), clinical isolate, read-out: MIC (μg/ml) 50%): 0.5 µg/mL (≈ 1.38 µM) | MIC (Staphylococcus aureus; MRSA, strain NTUH-406-2, MRSA (SCCmec IV, spa type t008), clinical isolate, read-out: MIC (μg/ml) 50%): 0.5 µg/mL (≈ 1.38 µM) | MIC (Staphylococcus aureus; MRSA, strain NTUH-560, MRSA (SCCmec II, GM-S), clinical isolate, read-out: MIC (μg/ml) 50%): 1 µg/mL (≈ 2.75 µM) | MIC (Staphylococcus aureus; MRSA, strain NTUH-2102, MRSA (SCCmec II, ST5, FA-S), clinical isolate, read-out: MIC (μg/ml) 50%): 1 µg/mL (≈ 2.75 µM) | MIC (Staphylococcus aureus; MRSA, strain NTUH-2417, MRSA (SCCmec III, SXT-S), clinical isolate, read-out: MIC (μg/ml) 50%): 0.5 µg/mL (≈ 1.38 µM) | MIC (Staphylococcus aureus; MRSA, strain NTUH-2643, MRSA (SCCmec IV, spa type to 15), clinical isolate, read-out: MIC (μg/ml) 50%): 1 µg/mL (≈ 2.75 µM) | MIC (Staphylococcus aureus; MRSA, strain NTUH-2967, MRSA (SCCmec VT, ST1), clinical isolate, read-out: MIC (μg/ml) 50%): 1 µg/mL (≈ 2.75 µM) | MIC (Staphylococcus aureus; MRSA, strain NTUH-4400, MRSA (SCCmec II, ST5, FA-R), clinical isolate, read-out: MIC (μg/ml) 50%): 1 µg/mL (≈ 2.75 µM) | MIC (Staphylococcus aureus; MRSA, strain NTUH-4578, MRSA (SCCmec IV, ST59), clinical isolate, read-out: MIC (μg/ml) 50%): 1 µg/mL (≈ 2.75 µM) | MIC (Staphylococcus aureus; MRSA, strain NTUH-8038, MRSA (SCCmec IV, spa type t189), clinical isolate, read-out: MIC (μg/ml) 50%): 1 µg/mL (≈ 2.75 µM) | MIC (Staphylococcus aureus; MRSA, strain NTUH-9383, MRSA (SCCmec III, ST239, FA-R), clinical isolate, read-out: MIC (μg/ml) 50%): 0.5 µg/mL (≈ 1.38 µM) | MIC (Staphylococcus aureus; MRSA, strain PM1, MRSA (SCCmec VT, ST59), clinical isolate, read-out: MIC (μg/ml) 50%): 1 µg/mL (≈ 2.75 µM) | MIC (Staphylococcus aureus; MRSA, strain TSHR17, MRSA (SCCmec VT), read-out: MIC (μg/ml) 50%): 0.5 µg/mL (≈ 1.38 µM) | IC50 (H1975 cell line; H1975, 72 h): 77 nM | IC50 (H1975 cell line; H1975 cell line, SRB assay, 72 hours): 77 to 247 nM
